Experimental data taken from US20230091047A1 (priority 2019, published 2023).
Where two headings read alike, the source gives them in different places.

Assays:
[1] = test system: HBV (HepG2.117 cell line, inducibly HBV producing); test: Anti-HBV activity: intracellular HBV DNA by real-time PCR in HepG2.117 cells after 3 days of treatment; type: cell-based, hepatitis B virus
How it was run: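 HepG2.117 cells replicate HBV under Tet-off control, without doxycycline. After induction of replication, cells were treated with serially diluted compound for 3 days, and intracellular HBV DNA was then quantified by real-time PCR with an HBV-specific primer set and probe.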

HepG2 cells = test: in vitro; type: cell-based; conditions: HepG2 or HepG2.117 cells, ATPlite, mean value, read-out: CC50 (μM, mean value)
How it was run: (§1)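 Luminescent ATP quantitation served as the viability endpoint following a 3- or 4-day incubation with test compounds.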

in vitro = type: cell-based; conditions: human, HepG2 or HepG2.117 cells, mean value
How it was run: as §1

[2] = HepG2.117 cells, 3 days of treatment, intracellular HBV DNA by real-time PCR; mean value; read-out: EC50 (μM, mean value)
[3] = 3-days incubation (unmarked values)
[4] = HepG2.117 cells, intracellular HBV DNA by real-time PCR, 3 days of treatment, mean value; read-out: EC50 (μM, mean value)
[5] = 3-days incubation (not marked with *)
[6] = Hepatitis B virus, HepG2.117, 72 h, HepG2.117 cells, intracellular HBV DNA by real-time PCR, 3 days of treatment, mean value; read-out: EC50 (μM, mean value)
[7] = Hepatitis B virus, HepG2.117, 72 h, HepG2.117 cells, 3 days of treatment, intracellular HBV DNA by real-time PCR; mean value; read-out: EC50 (μM, mean value)
[8] = 3-days incubation (unmarked values), ATPlite viability

Row | SMILES | EC50 [1, 2] [µM] | CC50 (HepG2 cells; [3]) [µM] | EC50 [1, 4] [µM] | CC50 (HepG2 cells; [5]) [µM] | further results
1 | CNC(=O)c1ccc(-n2c(NC(C)C)nc3c(c2=O)C[C@@H](C)N(C(=O)c2ccc(Cl)c(Cl)c2)C3)c(Cl)c1 (atropisomer, axis not shown) [Compound C293b, 3-chloro-4-[(6R)-7-(3,4-dichlorobenzoyl)-6-methyl-4-oxo-2-[(propan-2-yl)amino]-5,6,7,8-tetrahydropyrido[3,4-d]pyrimidin-3(4H)-yl]-N-methylbenzamide] | 0.06 | 27.1 |  |  | 
2 | Cc1cc(-n2cccn2)ccc1-n1c(NC(C)C)nc2c(c1=O)C[C@@H](C)N(C(=O)c1ccc(Cl)c(Cl)c1)C2 (atropisomer, axis not shown) [Compound C308a, (6R)-7-(3,4-dichlorobenzoyl)-6-methyl-3-[2-methyl-4-(1H-pyrazol-1-yl)phenyl]-2-[(propan-2-yl)amino]-5,6,7,8-tetrahydropyrido[3,4-d]pyrimidin-4(3H)-one] | 0.11 | > 50 |  |  | 
3 | COc1ccccc1-n1c(NCc2ccc3c(c2)OCO3)nc2c(c1=O)CCN(C(=O)c1ccc(Cl)c(Cl)c1)C2 (single isomer, unassigned) [Compound C26a, 2-{[(2H-1,3-benzodioxol-5-yl)methyl]amino}-7-(3,4-dichlorobenzoyl)-3-(2-methoxyphenyl)-5,6,7,8-tetrahydropyrido[3,4-d]pyrimidin-4(3H)-one] | 1.42 | > 50 |  |  | 
4 | COc1ccccc1-n1c(NCc2ccc3c(c2)OCO3)nc2c(c1=O)CCN(C(=O)c1ccc(Cl)c(Cl)c1)C2 (single isomer, unassigned) [Compound C26b, 2-{[(2H-1,3-benzodioxol-5-yl)methyl]amino}-7-(3,4-dichlorobenzoyl)-3-(2-methoxyphenyl)-5,6,7,8-tetrahydropyrido[3,4-d]pyrimidin-4(3H)-one] | 1.04 | > 50 |  |  | 
5 | COc1ccc(CNc2nc3c(c(=O)n2-c2ccccc2OC)C[C@H](C)N(C(=O)c2ccc(Cl)c(Cl)c2)C3)cc1 (single isomer, unassigned) [Compound C36Ba] | 1.21 | > 50 |  |  | 
6 | COc1ccc(CNc2nc3c(c(=O)n2-c2ccccc2OC)C[C@H](C)N(C(=O)c2ccc(Cl)c(Cl)c2)C3)cc1 (single isomer, unassigned) [Compound C36Bb] | > 50 | > 50 |  |  | 
7 | COc1ccccc1-n1c(N[C@@H](C)CO)nc2c(c1=O)CCN(C(=O)c1ccc(Cl)c(Cl)c1)C2 (single isomer, unassigned) [Compound C62Bb, 7-(3,4-dichlorobenzoyl)-2-{[(2*S)-1-hydroxypropan-2-yl]amino}-3-(2-methoxyphenyl)-5,6,7,8-tetrahydropyrido[3,4-d]pyrimidin-4(3H)-one] | 6.6 | > 50 |  |  | 
8 | COc1ccccc1-n1c(N[C@H](C)C(F)(F)F)nc2c(c1=O)CCN(C(=O)c1ccc(Cl)c(Cl)c1)C2 (single isomer, unassigned) [Compound C101b] | 9.59 | 33.2 |  |  | 
9 | CNC(=O)c1ccc(-n2c(NC(C)C)nc3c(c2=O)C[C@@H](C)N(C(=O)c2ccc(Cl)c(Cl)c2)C3)c(Cl)c1 (single isomer, unassigned) [Compound C293a] | 0.06 | 33.4 |  |  | 
10 | Cc1cc(-n2cccn2)ccc1-n1c(NC(C)C)nc2c(c1=O)C[C@@H](C)N(C(=O)c1ccc(Cl)c(Cl)c1)C2 (single isomer, unassigned) [Compound C308b] | 0.16 | > 50 |  |  | 
11 | CNC(=O)c1ccc(-n2c(NC(C)C)nc3c(c2=O)C[C@@H](C)N(C(=O)c2ccc(Cl)c(Cl)c2)C3)c(OC)c1 (single isomer, unassigned) [Compound C314b] | 0.22 | > 50 |  |  | 
12 | CNC(=O)c1ccc(-n2c(NC(C)C)nc3c(c2=O)C[C@@H](C)N(C(=O)c2ccc(Cl)c(Cl)c2)C3)c(C(F)(F)F)c1 (single isomer, unassigned) [Compound C340b] | 0.39 | 29.8 |  |  | 
13 | CCc1cc(C(=O)NC)ccc1-n1c(NC(C)C)nc2c(c1=O)C[C@@H](C)N(C(=O)c1ccc(Cl)c(Cl)c1)C2 (single isomer, unassigned) [Compound C383b] |  |  | 0.17 | > 45 | 
14 | CNC(=O)c1ccc(-n2c(N[C@@H](C)c3ccccc3)nc3c(c2=O)C[C@@H](C)N(C(=O)c2ccc(Cl)c(Cl)c2)C3)c(Cl)c1 (single isomer, unassigned) [Compound C386b] |  |  | 0.1 | > 50 | 
15 | CNC(=O)c1ccc(-n2c(N[C@@H](C)C3CC3)nc3c(c2=O)C[C@@H](C)N(C(=O)c2ccc(Cl)c(Cl)c2)C3)c(Cl)c1 (single isomer, unassigned) [Compound C387b] |  |  | 0.06 | 36.8 | 
16 | CC(C)Nc1nc2c(c(=O)n1-c1ccc(-c3nccn3C)cc1Cl)C[C@@H](C)N(C(=O)c1ccc(Cl)c(Cl)c1)C2 (single isomer, unassigned) [Compound C392b] |  |  | 0.12 | 26.7 | 

Row | SMILES | EC50 [1, 2] [µM] | CC50 (HepG2 cells; [3]) [µM] | EC50 [1, 4] [µM] | CC50 (HepG2 cells; [5]) [µM] | further results
17 | CC(C)Nc1nc2c(c(=O)n1-c1ccc(-c3ncc[nH]3)cc1Cl)C[C@@H](C)N(C(=O)c1ccc(Cl)c(Cl)c1)C2 (single isomer, unassigned) [Compound C393a] |  |  | 0.12 | 14.1 | 
18 | CC(C)Nc1nc2c(c(=O)n1-c1ccc(-c3ncc[nH]3)cc1Cl)C[C@@H](C)N(C(=O)c1ccc(Cl)c(Cl)c1)C2 (single isomer, unassigned) [Compound C393b] |  |  | 0.24 | 31.7 | 
19 | Cc1cc(-c2ncc[nH]2)ccc1-n1c(NC(C)C)nc2c(c1=O)C[C@@H](C)N(C(=O)c1ccc(Cl)c(Cl)c1)C2 (single isomer, unassigned) [Compound C399a] |  |  | 0.14 | 27.7 | 
20 | Cc1cc(-c2ncc[nH]2)ccc1-n1c(NC(C)C)nc2c(c1=O)C[C@@H](C)N(C(=O)c1ccc(Cl)c(Cl)c1)C2 (single isomer, unassigned) [Compound C399b] |  |  | 0.16 | 27 | 
21 | COc1ccc([C@H](C)Nc2nc3c(c(=O)n2-c2ccc(NC(C)=O)cc2)C[C@@H](C)N(C(=O)c2ccc(Cl)c(Cl)c2)C3)cc1 (single isomer, unassigned) [Compound C410a] |  |  | 0.95 | > 50 | 
22 | CNC(=O)c1ccc(-n2c(NC(C)C)nc3c(c2=O)C[C@@H](C)N(C(=O)c2ccc(Cl)c(Cl)c2)C3)c(C(C)C)c1 (single isomer, unassigned) [Compound C420a] |  |  | 0.72 | 21.7 | 
23 | CNC(=O)c1ccc(-n2c(NC(C)C)nc3c(c2=O)C[C@@H](C)N(C(=O)c2ccc(Cl)c(Cl)c2)C3)c(C(C)C)c1 (single isomer, unassigned) [Compound C420b] |  |  | 0.35 | 23.5 | 
24 | CNc1noc2cc(-n3c(NC(C)C)nc4c(c3=O)C[C@@H](C)N(C(=O)c3ccc(Cl)c(Cl)c3)C4)c(C)cc12 (single isomer, unassigned) [Compound C447a] |  |  | 0.23 | > 50 | 
25 | CNc1noc2cc(-n3c(NC(C)C)nc4c(c3=O)C[C@@H](C)N(C(=O)c3ccc(Cl)c(Cl)c3)C4)c(C)cc12 (single isomer, unassigned) [Compound C447b] |  |  | 0.05 | > 50 | 
26 | Cc1c[nH]c(-c2ccc(-n3c(NC(C)C)nc4c(c3=O)C[C@@H](C)N(C(=O)c3ccc(Cl)c(Cl)c3)C4)c(Cl)c2)n1 (single isomer, unassigned) [Compound C455a] |  |  |  | 17.6 | EC50 [1, 6]: 0.05 µM
27 | Cc1c[nH]c(-c2ccc(-n3c(NC(C)C)nc4c(c3=O)C[C@@H](C)N(C(=O)c3ccc(Cl)c(Cl)c3)C4)c(Cl)c2)n1 (single isomer, unassigned) [Compound C455b] |  |  | 0.1 | > 50 | 
28 | CC(C)Nc1nc2c(c(=O)n1-c1ccc(S(C)(=O)=O)cc1)C[C@H](C)N(C(=O)c1ccc(Cl)c(Cl)c1)C2 [Compound C141, (6S)-7-(3,4-dichlorobenzoyl)-3-[4-(methanesulfonyl)phenyl]-6-methyl-2-[(propan-2-yl)amino]-5,6,7,8-tetrahydropyrido[3,4-d]pyrimidin-4(3H)-one] |  | > 50 |  |  | 
29 | CNC(=O)c1ccc(-n2c(N[C@@H](C)C3CC3)nc3c(c2=O)C[C@@H](C)N(C(=O)c2ccc(Cl)c(C(F)F)c2)C3)cc1 [Compound C699, 4-((R)-7-(4-chloro-3-(difluoromethyl)benzoyl)-2-(((S)-1-cyclopropylethyl)amino)-6-methyl-4-oxo-5,6,7,8-tetrahydropyrido[3,4-d]pyrimidin-3(4H)-yl)-N-methylbenzamide] |  |  |  |  | EC50 [1, 7]: 0.04 µM; CC50 at 3 days (in vitro; [8]): > 50 µM
30 | CC(C)NC(=O)c1ncc(-n2c(NC(C)C)nc3c(c2=O)C[C@@H](C)N(C(=O)c2ccc(Cl)c(C(F)(F)F)c2)C3)n1C [Compound C703] |  |  |  |  | EC50 [1, 7]: 0.09 µM; CC50 at 3 days (in vitro; [8]): > 50 µM
31 | CC(C)Nc1nc2c(c(=O)n1-c1ccc(C(=O)O)cc1)C[C@@H](C)N(C(=O)c1ccc(Cl)c(Cl)c1)C2 [Compound I70, (R)-4-(7-(3,4-dichlorobenzoyl)-2-(isopropylamino)-6-methyl-4-oxo-5,6,7,8-tetrahydropyrido[3,4-d]pyrimidin-3(4H)-yl)benzoic acid] |  |  |  |  | EC50 [1, 6]: 3.6 µM; CC50 at 3 days (in vitro; ATPlite, 3-days incubation (not marked with *)): > 50 µM
